Source: patent US20070049593A1 (priority 2004, published 2007)
Structures can show the parent of a compound that is named as a salt.

These compounds were tested against T1, HCV polymerase (Hepatitis C virus genotype 1b, UniProt P26663) (assay: biochemical).
T1 construct: a region encoding NS5B (J Virol 1991 March, 65(3), 1105-13, 544 amino acids after deletion of 47 amino acids on the C-terminal); 6xHis (C); made in house; host or cells: Escherichia coli
Set-up: species or system HCV BK strain
Summary of the method: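 Recombinant HCV BK-strain NS5B (C-terminal 47 aa deleted, His6-tagged, E. coli), 0.5 μg/ml, run with 5 μg/ml in vitro-transcribed RNA template (polyU/3′X), ATP/GTP/CTP 50 μM, UTP 2 μM plus [3H]UTP, pH 7.5, 25° C, 90 min. TCA-precipitated RNA counted by scintillation; IC50 from activity with vs without compound.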

T1 sequence (P26663 2420-2963): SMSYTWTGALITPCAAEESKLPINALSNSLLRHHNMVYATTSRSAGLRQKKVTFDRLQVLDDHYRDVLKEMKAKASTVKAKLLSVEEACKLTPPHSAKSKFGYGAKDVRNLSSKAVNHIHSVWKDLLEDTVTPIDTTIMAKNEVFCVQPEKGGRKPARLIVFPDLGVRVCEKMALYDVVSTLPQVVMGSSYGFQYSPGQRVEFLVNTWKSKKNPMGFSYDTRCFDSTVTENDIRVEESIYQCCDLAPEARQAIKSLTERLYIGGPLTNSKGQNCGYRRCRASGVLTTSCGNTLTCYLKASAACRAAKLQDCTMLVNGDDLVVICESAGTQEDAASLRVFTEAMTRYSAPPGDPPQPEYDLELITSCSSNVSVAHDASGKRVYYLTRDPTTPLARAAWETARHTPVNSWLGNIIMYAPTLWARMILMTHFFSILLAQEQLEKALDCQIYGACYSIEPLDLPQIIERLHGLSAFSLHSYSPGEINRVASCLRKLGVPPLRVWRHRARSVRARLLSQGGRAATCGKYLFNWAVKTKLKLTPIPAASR

SMILES | IC50 [nM]
COCCC1CCCN(CCN2CCn3c(c(C4CCCCC4)c4ccc(C(=O)O)cc43)-c3ccccc32)C1 (centres unmarked) [Example 1-306, 13-cyclohexyl-5-{2-[3-(2-methoxyethyl)piperidin-1-yl]ethyl}-6,7-dihydro-5H-benzo[5,6][1,4]diazepino[7,1-a]indole-10-carboxylic acid dihydrochloride] | < 100
COCCC1CCCN(CCN2CCn3c(c(C4CCCCC4)c4ccc(C(=O)O)cc43)-c3ccc(Cl)cc32)C1 (centres unmarked) [Example 1-307, 3-chloro-13-cyclohexyl-5-{2-[3-(2-methoxyethyl)piperidin-1-yl]ethyl}-6,7-dihydro-5H-benzo[5,6][1,4]diazepino[7,1-a]indole-10-carboxylic acid dihydrochloride] | < 100
COCCC1CCCN(CCN2CCn3c(c(C4CCCCC4)c4ccc(C(=O)O)cc43)-c3ccc(C)cc32)C1 (centres unmarked) [Example 1-308, 13-cyclohexyl-5-{2-[3-(2-methoxyethyl)piperidin-1-yl]ethyl}-3-methyl-6,7-dihydro-5H-benzo[5,6][1,4]diazepino[7,1-a]indole-10-carboxylic acid dihydrochloride] | < 100
CN(C)CCN1CCn2c(c(C3CCCCC3)c3ccc(C(=O)O)cc32)-c2ccc(OCc3cc(S(C)(=O)=O)ccc3N3CCOCC3)cc21 [Example 1-309, 13-cyclohexyl-5-(2-dimethylaminoethyl)-3-[5-methanesulfonyl-2-(morpholin-4-yl)benzyloxy]-6,7-dihydro-5H-benzo[5,6][1,4]diazepino[7,1-a]indole-10-carboxylic acid trihydrochloride] | < 100
COC(=O)Oc1ccc2c(c1)N(CCN(C)C)CCn1c-2c(C2CCCCC2)c2ccc(C(=O)O)cc21 [Example 1-310, 13-cyclohexyl-5-(2-dimethylaminoethyl)-3-methoxycarbonyloxy-6,7-dihydro-5H-benzo[5,6][1,4]diazepino[7,1-a]indole-10-carboxylic acid dihydrochloride] | < 100
CN(C)CCN1CCn2c(c(C3CCCCC3)c3ccc(C(=O)O)cc32)-c2ccc(Oc3ccccc3)cc21 [Example 1-311, 13-cyclohexyl-5-(2-dimethylaminoethyl)-3-phenoxy-6,7-dihydro-5H-benzo[5,6][1,4]diazepino[7,1-a]indole-10-carboxylic acid dihydrochloride] | < 100
CN1CCCCC1CCN1CCn2c(c(C3CCCCC3)c3ccc(C(=O)O)cc32)-c2ccc(Cl)cc21 (centres unmarked) [Example 1-312, 3-chloro-13-cyclohexyl-5-[2-(1-methylpiperidin-2-yl)ethyl]-6,7-dihydro-5H-benzo[5,6][1,4]diazepino[7,1-a]indole-10-carboxylic acid dihydrochloride] | < 100
COCC1CCN(CCN2CCn3c(c(C4CCCCC4)c4ccc(C(=O)O)cc43)-c3ccc(Cl)cc32)CC1 [Example 1-314, 3-chloro-13-cyclohexyl-5-[2-(4-methoxymethylpiperidin-1-yl)ethyl]-6,7-dihydro-5H-benzo[5,6][1,4]diazepino[7,1-a]indole-10-carboxylic acid dihydrochloride] | < 100
COCC1CCN(CCN2CCn3c(c(C4CCCCC4)c4ccc(C(=O)O)cc43)-c3ccc(C)cc32)CC1 [Example 1-315, 13-cyclohexyl-5-[2-(4-methoxymethylpiperidin-1-yl)ethyl]-3-methyl-6,7-dihydro-5H-benzo[5,6][1,4]diazepino[7,1-a]indole-10-carboxylic acid dihydrochloride] | < 100
COC[C@H]1CCCN1CCN1CCn2c(c(C3CCCCC3)c3ccc(C(=O)O)cc32)-c2ccccc21 [Example 1-316, 13-cyclohexyl-5-[2-((R)-2-methoxymethylpyrrolidin-1-yl)ethyl]-6,7-dihydro-5H-benzo[5,6][1,4]diazepino[7,1-a]indole-10-carboxylic acid dihydrochloride] | < 100
CCN1CCC(OCCN2CCn3c(c(C4CCCCC4)c4ccc(C(=O)O)cc43)-c3ccc(Cl)cc32)CC1 [Example 1-317, 3-chloro-13-cyclohexyl-5-[2-(1-ethylpiperidin-4-yloxy)ethyl]-6,7-dihydro-5H-benzo[5,6][1,4]diazepino[7,1-a]indole-10-carboxylic acid dihydrochloride] | < 100
CC(C)N1CCC(OCCN2CCn3c(c(C4CCCCC4)c4ccc(C(=O)O)cc43)-c3ccc(Cl)cc32)CC1 [Example 1-318, 3-chloro-13-cyclohexyl-5-[2-(1-isopropylpiperidin-4-yloxy)ethyl]-6,7-dihydro-5H-benzo[5,6][1,4]diazepino[7,1-a]indole-10-carboxylic acid dihydrochloride] | < 100
CN(CCN1CCn2c(c(C3CCCCC3)c3ccc(C(=O)O)cc32)-c2ccccc21)C1CCCC1 [Example 1-319, 13-cyclohexyl-5-[2-(N-cyclopentyl-N-methylamino)ethyl]-6,7-dihydro-5H-benzo[5,6][1,4]diazepino[7,1-a]indole-10-carboxylic acid] | < 100
CC1CCCN(CCCN2CCn3c(c(C4CCCCC4)c4ccc(C(=O)O)cc43)-c3ccc(Cl)cc32)C1 (centres unmarked) [Example 1-320, 3-chloro-13-cyclohexyl-5-[3-(3-methylpiperidin-1-yl)propyl]-6,7-dihydro-5H-benzo[5,6][1,4]diazepino[7,1-a]indole-10-carboxylic acid] | < 100
CN(CCN1CCn2c(c(C3CCCCC3)c3ccc(C(=O)O)cc32)-c2ccccc21)C1CCOC1 (centres unmarked) [Example 1-321, 13-cyclohexyl-5-{2-[N-methyl-N-(tetrahydrofuran-3-yl)amino]ethyl}-6,7-dihydro-5H-benzo[5,6][1,4]diazepino[7,1-a]indole-10-carboxylic acid] | < 100
CC1CCCCN1CCCN1CCn2c(c(C3CCCCC3)c3ccc(C(=O)O)cc32)-c2ccc(Cl)cc21 (centres unmarked) [Example 1-322, 3-chloro-13-cyclohexyl-5-[3-(2-methylpiperidin-1-yl)propyl]-6,7-dihydro-5H-benzo[5,6][1,4]diazepino[7,1-a]indole-10-carboxylic acid] | < 100
CCN1CCCCC1CCN1CCn2c(c(C3CCCCC3)c3ccc(C(=O)O)cc32)-c2ccc(Cl)cc21 (centres unmarked) [Example 1-323, 3-chloro-13-cyclohexyl-5-[2-(1-ethylpiperidin-2-yl)ethyl]-6,7-dihydro-5H-benzo[5,6][1,4]diazepino[7,1-a]indole-10-carboxylic acid dihydrochloride] | < 100
CCOC1CCCN(CCN2CCn3c(c(C4CCCCC4)c4ccc(C(=O)O)cc43)-c3ccccc32)C1 (centres unmarked) [Example 1-324, 13-cyclohexyl-5-[2-(3-ethoxypiperidin-1-yl)ethyl]-6,7-dihydro-5H-benzo[5,6][1,4]diazepino[7,1-a]indole-10-carboxylic acid monohydrochloride] | < 100
CCOC1CCCN(CCN2CCn3c(c(C4CCCCC4)c4ccc(C(=O)O)cc43)-c3ccc(C)cc32)C1 (centres unmarked) [Example 1-325, 13-cyclohexyl-5-[2-(3-ethoxypiperidin-1-yl)ethyl]-3-methyl-6,7-dihydro-5H-benzo[5,6][1,4]diazepino[7,1-a]indole-10-carboxylic acid monohydrochloride] | < 100
CCOC1CCCN(CCN2CCn3c(c(C4CCCCC4)c4ccc(C(=O)O)cc43)-c3ccc(Cl)cc32)C1 (centres unmarked) [Example 1-326, 3-chloro-13-cyclohexyl-5-[2-(3-ethoxypiperidin-1-yl)ethyl]-6,7-dihydro-5H-benzo[5,6][1,4]diazepino[7,1-a]indole-10-carboxylic acid monohydrochloride] | < 100
CCC1COCCN1CCN1CCn2c(c(C3CCCCC3)c3ccc(C(=O)O)cc32)-c2ccc(Cl)cc21 (centres unmarked) [Example 1-327, 3-chloro-13-cyclohexyl-5-[2-(3-ethylmorpholin-4-yl)ethyl]-6,7-dihydro-5H-benzo[5,6][1,4]diazepino[7,1-a]indole-10-carboxylic acid dihydrochloride] | < 100
CC1CN(CCN2CCn3c(c(C4CCCCC4)c4ccc(C(=O)O)cc43)-c3ccc(Cl)cc32)CCO1 (centres unmarked) [Example 1-328, 3-chloro-13-cyclohexyl-5-[2-(2-methylmorpholin-4-yl)ethyl]-6,7-dihydro-5H-benzo[5,6][1,4]diazepino[7,1-a]indole-10-carboxylic acid dihydrochloride] | < 100
Cc1ccc2c(c1)N(CCN1CCOC(C)C1)CCn1c-2c(C2CCCCC2)c2ccc(C(=O)O)cc21 (centres unmarked) [Example 1-329, 13-cyclohexyl-3-methyl-5-[2-(2-methylmorpholin-4-yl)ethyl]-6,7-dihydro-5H-benzo[5,6][1,4]diazepino[7,1-a]indole-10-carboxylic acid dihydrochloride] | < 100
CNC(=O)N1CCN(CCN2CCn3c(c(C4CCCCC4)c4ccc(C(=O)O)cc43)-c3ccccc32)CC1 [Example 1-330, 13-cyclohexyl-5-[2-(4-methylcarbamoylpiperazin-1-yl)ethyl]-6,7-dihydro-5H-benzo[5,6][1,4]diazepino[7,1-a]indole-10-carboxylic acid dihydrochloride] | < 100
CCCC1CCCN(CCN2CCn3c(c(C4CCCCC4)c4ccc(C(=O)O)cc43)-c3ccccc32)C1 (centres unmarked) [Example 1-331, 13-cyclohexyl-5-[2-(3-propylpiperidin-1-yl)ethyl]-6,7-dihydro-5H-benzo[5,6][1,4]diazepino[7,1-a]indole-10-carboxylic acid dihydrochloride] | < 100
CCC1CCCCN1CCN1CCn2c(c(C3CCCCC3)c3ccc(C(=O)O)cc32)-c2ccccc21 (centres unmarked) [Example 1-332, 13-cyclohexyl-5-[2-(2-ethylpiperidin-1-yl)ethyl]-6,7-dihydro-5H-benzo[5,6][1,4]diazepino[7,1-a]indole-10-carboxylic acid dihydrochloride] | < 100
